Results on five molecules are retold here after article PMC6512342 (Biochemical pharmacology, 2018).

Several values for one entry are separate records, joined by “and”; a condition that tells them apart may be missing. Equal values may be shown once. A value given as a limit tells only on which side of the number the result lay.

In data set [1] the test system is CYP3A4. The settings on record: cited from earlier work.
The target of data set [2] is human CYP2D6 (Homo sapiens, UniProt P10635). Nature of the data set: Substrate-induced spin shift titration, purified CYP2D6 in solution. It is filed as binding. Particulars: for maximal amplitude of the spin shift: purified CYP2D6 in solution.
The target in data set [3] is T1, human CYP2D6 (CYP2D6-incorporated proteoliposomes) (Homo sapiens, UniProt P10635). Nature of the data set: Substrate-induced spin shift titration, CYP2D6-PLS. It is filed as binding. The settings on record: for Kd: dissociation constant (KD), spin shift titration.
For data set [4], the system named is CYP2D6. Particulars: read-out: KM for BMAMC; CYP2D6-containing bacterial membranes; cited from earlier work.
The conditions of data set [5]: healthy volunteers, recreational dose 100–150 mg; cited from earlier work.
Data set [6] deals with T1, human CYP2D6 (CYP2D6-incorporated proteoliposomes). Nature of the data set: MDMA-dependent time-dependent inhibition.
Data set [7] deals with T2, CYP2D6 (CYP2D6 Supersomes) (Homo sapiens, UniProt P10635). Nature of the data set: MDMA-dependent TDI in CYP2D6-SS with BMAMC as probe substrate. Particulars: 100 μM MDMA, exponential fit.
For data set [8], the target named is T1, human CYP2D6 (CYP2D6-incorporated proteoliposomes). The experiment in a line: Spectroscopic study of MDMA-dependent MIC formation in CYP2D6-PLS. Type of data set: biochemical.
In data set [9] the target is T2, CYP2D6 (CYP2D6 Supersomes). The experiment in a line: Spectroscopic study of MDMA-dependent MIC formation in CYP2D6-SS. It is filed as biochemical. Particulars: 100 μM MDMA, exponential fit.
The nature of data set [10]: MDMA liver-to-blood ratio and liver concentration. Particulars: estimated from plasma peak and liver-to-blood ratio.
In data set [11] the target is T1, human CYP2D6 (CYP2D6-incorporated proteoliposomes). The experiment in a line: MDMA utilization and DHMA formation in CYP2D6-PLS. Type of data set: in vitro ADME.
Substrate in data set [12]: CCCCNCc1cc(=O)oc2cc(OC)ccc12
The experiment in a line: Fluorometric determination of CYP2D6 activity with BMAMC in CYP2D6-SS. It is filed as biochemical, human. The settings on record: other: CYP2D6-SS, 30 °C.

[13] abbreviates: CYP2D6-PLS, 100 μM MDMA, exponential fit.
[14] abbreviates: kinetic model fit, kinetics of MIC formation.
[15] abbreviates: kinetic model fit, kinetics of DHMA production.

For `COc1cc([C@@H]2c3cc4c(cc3[C@H](O)[C@H]3COC(=O)[C@H]23)OCO4)cc(OC)c1OC` [podophylotoxin], in [1], the “reversibility of the Fe2+:carbene complex (MIC)” value is “virtually irreversible”.
`COc1ccc2c(c1)[C@]13CCCC[C@@H]1[C@H](C2)N(C)CC3` [DXM, Dextromethorphan]: in data set [2], the Kd was 45.7 ± 3.1 µM and the “maximal amplitude of the spin shift” value turned out to be 11.9±1.8%. For the same molecule, in data set [3], the “maximal amplitude of the spin shift (Amax)” value is 25% and 24.7±0.4%; the Kd was 52 µM and 53.2 µM.
Regarding `CCCCNCc1cc(=O)oc2cc(OC)ccc12` [BMAMC, N-butyl 7-methoxy-4-(aminomethyl)-coumarin], the Km in data set [4] is 1.5 µM.
For `CNC(C)Cc1ccc2c(c1)OCO2` (stereo not drawn) [MDMA, 3,4-methylenedioxymethamphetamine], the “peak concentration in blood plasma” value in data set [5] was 1 pM. Further, the dissociation constant (Kd) in [6] is 23.9 µM; in [8] (kD, kinetic model fit, kinetics of MIC formation, k2/k1 with k1 fixed), 55.5 µM; in data set [2], 21.8 ± 7.7 µM; in data set [3], 24 µM and 27.9 µM; in data set [11], 49.5 µM. Further, the “reversibility of inactivation of CYP2D6” value in [6] (CYP2D6-PLS) is reported as “reversible”. Also, the results for the “Kobs (TDI)” value in data set [6] (setting [13]) and in [7] were 0.15 min⁻¹ and 0.28 min⁻¹, respectively. In addition, the “maximal depth of TDI at enzyme saturation with MDMA” value in data set [6] (CYP2D6-PLS, DXM as probe substrate, Michaelis-Menten fit) was determined as 80±8%. In addition, the “relative amplitude of TDI at MDMA saturation” value in data set [6] (CYP2D6-PLS, rate of BMAMC metabolism) is given as “over 80%”. The k3 came to 3.2 min⁻¹ in data set [6] (kinetic model fit, TDI); 1.7 min⁻¹ in data set [8] (setting [14]); 3.9 min⁻¹ in data set [11] (setting [15]). For the same molecule, the k4 turned out to be 0.085 min⁻¹ in data set [6] (kinetic model fit, TDI); 0.167 min⁻¹ in data set [8] (setting [14]); 0.14 min⁻¹ in data set [11] (setting [15]). The k5 in data set [6] (kinetic model fit, TDI) was 0.033 min⁻¹; in [8] (setting [14]) it was 0.027 min⁻¹; in data set [11] (setting [15]), 0.047 min⁻¹. In addition, the k6 in data set [6] (kinetic model fit, TDI, MDMA-independent inactivation) is 0.005 min⁻¹; in [11] (kinetic model fit, kinetics of DHMA production, MDMA-independent inactivation), 0.041 min⁻¹. For the same molecule, the Finact in data set [6] (kinetic model fit, TDI, value fixed from MIC analysis) is 0.42; in data set [8] (kinetic model fit, kinetics of MIC formation, CYP2D6-PLS) it was 0.423 and 0.42; in data set [11] (kinetic model fit, kinetics of DHMA production, value fixed from MIC analysis) it was 0.42. In addition, the figures for the “Amax (MIC)” value in data set [8] (setting [13]) and in [9] were 37% and 49%, respectively. Moreover, the “Kobs (MIC)” value in data set [8] (setting [13]) was 0.085 min⁻¹; in data set [9], 0.19 min⁻¹. The “maximal amplitude of MIC formation” value in [8] (CYP2D6-PLS, saturating MDMA) is listed as 45 ± 3 % of the total P450 content. For the same molecule, in data set [2], the “maximal amplitude of the spin shift” value was found to be 6.0± 1.5%. Besides, in [3], the “maximal amplitude of the spin shift (Amax)” value was 8.1% and 10.9±5.5%. In addition, the “physiological concentration of MDMA in human liver” value in data set [10] was at most 10 pM. The “MDMA concentration after incubation” value in data set [11] (CYP2D6-PLS with NADPH, 1 hour, initial 5 μM MDMA) came to 1.5 µM. Moreover, the “decrease in MDMA concentration” value in data set [11] (CYP2D6-PLS with NADPH, 1 hour, initial 100 μM MDMA) is ≤ 30 % of the initial concentration.

B1: CYP2D6 (CYP2D6 Supersomes) (Homo sapiens) (protein)
chain: MGLEALVPLAVIVAIFLLLVDLMHRRQRWAARYPPGPLPLPGLGNLLHVDFQNTPYCFDQLRRRFGDVFSLQLAWTPVVVLNGLAAVREALVTHGEDTADRPPVPITQILGFGPRSQGVFLARYGPAWREQRRFSVSTLRNLGLGKKSLEQWVTEEAACLCAAFANHSGRPFRPNGLLDKAVSNVIASLTCGRRFEYDDPRFLRLLDLAQEGLKEESGFLREVLNAVPVLLHIPALAGKVLRFQKAFLTQLDELLTEHRMTWDPAQPPRDLTEAFLAEMEKAKGNPESSFNDENLRIVVADLFSAGMVTTSTTLAWGLLLMILHPDVQRRVQQEIDDVIGQVRRPEMGDQAHMPYTTAVIHEVQRFGDIVPLGVTHMTSRDIEVQGFRIPKGTTLITNLSSVLKDEAVWEKPFRFHPEHFLDAQGHFVKPEAFLPFSAGRRACLGEPLARMELFLFFTSLLQHFSFSVPTGQPRPSHHGVFAFLVSPSPYELCAVPR
Turning to B1, the Km in data set [12] came to 3.5 µM.
